Results on four compounds are retold here after ChEMBL document CHEMBL5729726, “Tricyclic compounds as histone methyltransferase inhibitors” (2023).

The assay addresses T1, Histone-lysine N-methyltransferase EHMT2 (Homo sapiens, UniProt Q96KQ7).
T1 sequence (Q96KQ7 whole entry): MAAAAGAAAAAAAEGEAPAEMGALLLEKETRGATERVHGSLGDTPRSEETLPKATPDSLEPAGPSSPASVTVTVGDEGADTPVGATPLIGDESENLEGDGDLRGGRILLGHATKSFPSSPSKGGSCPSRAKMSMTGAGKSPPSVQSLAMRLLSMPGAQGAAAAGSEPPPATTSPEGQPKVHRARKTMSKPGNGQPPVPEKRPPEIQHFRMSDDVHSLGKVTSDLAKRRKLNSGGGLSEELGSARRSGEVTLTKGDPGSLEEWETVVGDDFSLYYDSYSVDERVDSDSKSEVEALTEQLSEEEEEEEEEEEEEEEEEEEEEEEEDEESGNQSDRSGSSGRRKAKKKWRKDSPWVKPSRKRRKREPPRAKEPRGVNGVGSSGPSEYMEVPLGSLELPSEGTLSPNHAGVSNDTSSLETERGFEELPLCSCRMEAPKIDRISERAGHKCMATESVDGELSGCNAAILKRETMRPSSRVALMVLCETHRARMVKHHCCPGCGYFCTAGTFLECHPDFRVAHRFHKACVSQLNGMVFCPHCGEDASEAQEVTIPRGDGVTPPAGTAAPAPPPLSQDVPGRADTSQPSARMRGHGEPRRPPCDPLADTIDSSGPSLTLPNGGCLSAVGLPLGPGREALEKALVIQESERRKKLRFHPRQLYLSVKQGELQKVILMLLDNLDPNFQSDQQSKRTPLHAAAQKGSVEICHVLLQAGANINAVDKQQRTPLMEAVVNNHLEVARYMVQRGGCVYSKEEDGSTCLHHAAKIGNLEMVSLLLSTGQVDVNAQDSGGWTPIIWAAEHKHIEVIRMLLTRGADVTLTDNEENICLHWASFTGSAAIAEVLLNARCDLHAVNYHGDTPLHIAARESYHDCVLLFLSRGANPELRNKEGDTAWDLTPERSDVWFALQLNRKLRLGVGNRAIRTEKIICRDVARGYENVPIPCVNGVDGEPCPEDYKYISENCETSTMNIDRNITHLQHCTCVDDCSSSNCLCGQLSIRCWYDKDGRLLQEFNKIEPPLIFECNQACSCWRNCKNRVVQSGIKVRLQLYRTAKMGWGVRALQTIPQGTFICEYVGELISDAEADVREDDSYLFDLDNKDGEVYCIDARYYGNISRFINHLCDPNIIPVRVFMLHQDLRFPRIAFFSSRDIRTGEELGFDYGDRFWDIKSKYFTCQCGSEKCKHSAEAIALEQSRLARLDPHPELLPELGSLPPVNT
Briefly: Enzymatic Activity Assay: For the assay, the following buffer was used to set up reactions: 50 mM Tris-HCl pH9, 50 mM NaCl, 0.01% Tween-20 and 1 mM DTT (added fresh prior to starting the reactions). The assay is set up by adding a final concentration of 0.15 nM G9a, 15 uM S-adenosyl-methionine and 100 nM biotinylated histone 3 peptide (1-21). The reaction is incubated at rt for 1 hour and subsequently quenched with the acceptor beads (anti-H3k9me2 AlphaLISA acceptor beads, Perkin Elmer #AL117) at a final concentration of 20 ug/mL. The acceptor beads are incubated for 1 hour. After 1 hour, the donor beads are added at a final concentration of 20 ug/mL (Alpha Streptavidin donor beads, PerkinElmer #6760002). Donor beads are incubated for 0.5 hours. Both donor and acceptor beads are resuspended in AlphaLISA 5X Epigenetics Buffer 1 Kit (PerkinElmer #AL008) prior to addition to the reaction. All manipulations and incubations with the donor and acceptor beads are done in subdued light. Signal is detected in an EnVision plate reader in Alpha mode. For orientation: Bead proximity is the source of the signal in Alpha formats.

What is called IC50 is the concentration that gives 50% inhibition. Read a high IC50 as a need for much substance.

`COc1cc2nc3c(c(NC4CCN(C(C)C)CC4)c2cc1OC)CCCC3` registered an IC50 of at least 10000 nM.

For `COc1cc2nc3c(c(NCC4CN(c5ccccc5F)C4)c2cc1OC)CCC3`, the half-maximal inhibitory concentration (IC50) came to 1740 nM.

The compound `COc1cc2nc3c(c(NC4CC(C)(C)NC(C)(C)C4)c2cc1OC)CCC3` yielded an IC50 of 53.7 nM.

Compound `COc1cc2nc3c(c(NC4CCN(C5CCOC5)CC4)c2cc1OC)CCC3` (centres undefined) showed an IC50 of 617 nM.
